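Tested at 5 concentrations; 48 h exposure; 96-well plates; endpoints linearly interpolated, else capped at highest concentration. GI50 is the concentration that inhibits growth by half.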 Activity calls are given as the source filed them. Cut-off read from the data, not from the text of the source: active = GI50 up to about 1.1 µM and inactive = higher.
How the values were obtained:
Test in all cases: inhibition of tumour cell growth, NCI panel, 48 h
[1] = tested on: OVCAR-8
[2] = tested on: HCT-116
[3] = tested on: DLD-1
[4] = tested on: SNB-75
[5] = tested on: CCRF-CEM
[6] = tested on: SW-620
[7] = tested on: NCI-H23
[8] = tested on: KM-20L2
[9] = tested on: A549
[10] = tested on: LXFL 529
[11] = tested on: NCI-H226
[12] = tested on: 786-0
[13] = tested on: UACC-257
[14] = tested on: Malme-3M
[15] = tested on: SNB-19
[16] = tested on: EKVX
[17] = tested on: SF-268
[18] = tested on: OVCAR-5
[19] = tested on: SN12C
[20] = tested on: COLO 205
[21] = tested on: RPMI-8226
[22] = tested on: OVCAR-4
[23] = tested on: DMS-273
[24] = tested on: RXF 393
[25] = tested on: HL-60
[26] = tested on: UACC-62
[27] = tested on: HCC 2998
[28] = tested on: KM12
[29] = tested on: U-251
[30] = tested on: K562
[31] = tested on: A498
[32] = tested on: HOP-18
[33] = tested on: HOP-92
[34] = tested on: SR
[35] = tested on: ACHN
[36] = tested on: SNB-78
[37] = tested on: HOP-62
[38] = tested on: HT-29
[39] = tested on: XF498
[40] = tested on: OVCAR-3
[41] = tested on: IGROV-1
[42] = tested on: CAKI-1
[43] = tested on: MOLT-4
[44] = tested on: M14
[45] = tested on: HCT-15
[46] = tested on: SK-MEL-2
[47] = tested on: NCI/ADR-RES
[48] = tested on: SK-OV-3
[49] = tested on: NCI-H522
[50] = tested on: SF-295
[51] = tested on: SF-539
[52] = tested on: MCF7
[53] = tested on: M19-MEL
[54] = tested on: SK-MEL-28
[55] = tested on: LOX IMVI
[56] = tested on: DMS-114
[57] = tested on: UO-31
[58] = tested on: NCI-H460
[59] = tested on: SK-MEL-5
[60] = tested on: TK-10

For `NC(=O)c1ccccc1NC(=O)C(=O)C(C(=O)c1ccc(Cl)c(Cl)c1)C1OC(=O)c2ccccc21` (stereo unspecified), the GI50 [1] was 39.6 µM (inactive), the GI50 [2] was 18.7 µM (inactive) and the GI50 [3] was 43.3 µM (inactive). For the same compound, the GI50 [4] was 23.4 µM (inactive), the GI50 [5] was > 100 µM (inactive) and the GI50 [6] was 46.5 µM (inactive). The GI50 [7] was 39.5 µM (inactive), the GI50 [8] was 46.9 µM (inactive) and the GI50 [9] was 43.1 µM (inactive). The GI50 [10] was 29.9 µM (inactive), the GI50 [11] was 14.9 µM (inactive) and the GI50 [12] was 48.8 µM (inactive). For the same compound, the GI50 [13] was 62.4 µM (inactive), the GI50 [14] was 14.5 µM (inactive) and the GI50 [15] was 45 µM (inactive). For the same compound, the GI50 [16] was > 100 µM (inactive), the GI50 [17] was 34.4 µM (inactive) and the GI50 [18] was > 100 µM (inactive). The GI50 [19] was 44.4 µM (inactive), the GI50 [20] was 41.8 µM (inactive) and the GI50 [21] was 69.2 µM (inactive). The GI50 [22] was 43.3 µM (inactive), the GI50 [23] was 36.2 µM (inactive) and the GI50 [24] was 17 µM (inactive). For the same compound, the GI50 [25] was > 100 µM (inactive), the GI50 [26] was 30.8 µM (inactive) and the GI50 [27] was 49.8 µM (inactive). For the same compound, the GI50 [28] was 60.4 µM (inactive), the GI50 [29] was 30.8 µM (inactive) and the GI50 [30] was > 100 µM (inactive). The GI50 [31] was 31.8 µM (inactive), the GI50 [32] was 33.5 µM (inactive) and the GI50 [33] was 42.8 µM (inactive). The GI50 [34] was 95.9 µM (inactive), the GI50 [35] was 59.3 µM (inactive) and the GI50 [36] was 39.2 µM (inactive). For the same compound, the GI50 [37] was 43.8 µM (inactive), the GI50 [38] was 34.8 µM (inactive) and the GI50 [39] was > 100 µM (inactive). For the same compound, the GI50 [40] was 35.1 µM (inactive), the GI50 [41] was 60.1 µM (inactive) and the GI50 [42] was 52.6 µM (inactive). For the same compound, the GI50 [43] was > 100 µM (inactive), the GI50 [44] was 61.1 µM (inactive) and the GI50 [45] was 46.5 µM.
With `Brc1ccc2[nH]c3c(C4=NCCC4)nccc3c2c1` the GI50 [1] was 13.5 µM (inactive), the GI50 [2] was 9.86 µM (inactive) and the GI50 [3] was 15.5 µM (inactive). For the same compound, the GI50 [4] was 31.3 µM (inactive), the GI50 [5] was 10.4 µM (inactive) and the GI50 [6] was 21.3 µM (inactive). The GI50 [7] was 24.8 µM (inactive), the GI50 [8] was 8.17 µM (inactive) and the GI50 [9] was 16.3 µM (inactive). The GI50 [11] was 10.2 µM (inactive), the GI50 [46] was 13.9 µM (inactive) and the GI50 [47] was 40 µM (inactive). The GI50 [13] was 16.9 µM (inactive), the GI50 [14] was 1.91 µM (inactive) and the GI50 [48] was 26.7 µM (inactive). The GI50 [49] was 9.12 µM (inactive), the GI50 [15] was 21.7 µM (inactive) and the GI50 [50] was 10.6 µM (inactive). The GI50 [16] was 13 µM (inactive), the GI50 [17] was 16.1 µM (inactive) and the GI50 [18] was 6.11 µM (inactive). For the same compound, the GI50 [51] was 9.53 µM (inactive), the GI50 [52] was 9.25 µM (inactive) and the GI50 [19] was 19.1 µM (inactive). For the same compound, the GI50 [53] was 26.9 µM (inactive), the GI50 [20] was 23.3 µM (inactive) and the GI50 [54] was 16.4 µM (inactive). The GI50 [21] was 9.27 µM (inactive), the GI50 [22] was 17.1 µM (inactive) and the GI50 [23] was 14.4 µM (inactive). For the same compound, the GI50 [24] was 16.3 µM (inactive), the GI50 [25] was 5.79 µM (inactive) and the GI50 [26] was 9.73 µM (inactive). The GI50 [27] was 12.2 µM (inactive), the GI50 [28] was 41.5 µM (inactive) and the GI50 [29] was 12.5 µM (inactive). For the same compound, the GI50 [55] was 18 µM (inactive), the GI50 [30] was 11.3 µM (inactive) and the GI50 [32] was 10.2 µM (inactive). For the same compound, the GI50 [33] was > 26.9 µM (inactive), the GI50 [56] was 14.5 µM (inactive) and the GI50 [57] was 14.8 µM (inactive). For the same compound, the GI50 [36] was > 100 µM (inactive), the GI50 [58] was 9.95 µM (inactive) and the GI50 [37] was 11.6 µM (inactive). For the same compound, the GI50 [38] was 11.2 µM (inactive), the GI50 [39] was > 39.5 µM (inactive) and the GI50 [40] was 61 µM (inactive). For the same compound, the GI50 [41] was 18.7 µM (inactive), the GI50 [59] was 8.47 µM (inactive) and the GI50 [42] was 19.6 µM (inactive). The GI50 [43] was 8.45 µM (inactive) and the GI50 [45] was 17 µM.
With `Cc1cc([N+](=O)[O-])ccc1Sc1c2ccccc2nc2ccccc12` the GI50 [1] was 29.1 µM (inactive), the GI50 [2] was 22.5 µM (inactive) and the GI50 [3] was 25.4 µM (inactive). The GI50 [4] was 39.6 µM (inactive), the GI50 [5] was 21.8 µM (inactive) and the GI50 [6] was 22.6 µM (inactive). The GI50 [7] was 33 µM (inactive), the GI50 [8] was 31.4 µM (inactive) and the GI50 [9] was 64.6 µM (inactive). The GI50 [10] was 18.7 µM (inactive), the GI50 [11] was > 100 µM (inactive) and the GI50 [46] was 23.1 µM (inactive). The GI50 [12] was 23.6 µM (inactive), the GI50 [13] was 29.4 µM (inactive) and the GI50 [14] was > 100 µM (inactive). For the same compound, the GI50 [48] was 31.3 µM (inactive), the GI50 [49] was 18.1 µM (inactive) and the GI50 [15] was 45.5 µM (inactive). For the same compound, the GI50 [50] was 39.4 µM (inactive), the GI50 [16] was 39 µM (inactive) and the GI50 [17] was 41 µM (inactive). The GI50 [18] was > 100 µM (inactive), the GI50 [51] was 28.4 µM (inactive) and the GI50 [19] was 39.6 µM (inactive). For the same compound, the GI50 [20] was 39.9 µM (inactive), the GI50 [54] was > 100 µM (inactive) and the GI50 [22] was 57.8 µM (inactive). For the same compound, the GI50 [23] was 33 µM (inactive), the GI50 [24] was 57.5 µM (inactive) and the GI50 [25] was 3.03 µM (inactive). The GI50 [26] was 25.1 µM (inactive), the GI50 [60] was 57 µM (inactive) and the GI50 [27] was 25.4 µM (inactive). For the same compound, the GI50 [28] was 18.5 µM (inactive), the GI50 [29] was 28.5 µM (inactive) and the GI50 [55] was 20 µM (inactive). The GI50 [30] was 32.1 µM (inactive), the GI50 [31] was > 100 µM (inactive) and the GI50 [32] was 64 µM (inactive). For the same compound, the GI50 [33] was 48.3 µM (inactive), the GI50 [34] was 27.7 µM (inactive) and the GI50 [57] was 44.7 µM (inactive). For the same compound, the GI50 [35] was 48.9 µM (inactive), the GI50 [58] was 32 µM (inactive) and the GI50 [37] was > 100 µM (inactive). The GI50 [39] was 17.5 µM (inactive), the GI50 [40] was 41.4 µM (inactive) and the GI50 [41] was 28.4 µM (inactive). The GI50 [59] was 43.1 µM (inactive), the GI50 [42] was 26.4 µM (inactive) and the GI50 [43] was 15.7 µM (inactive). For the same compound, the GI50 [44] was 32.6 µM (inactive) and the GI50 [45] was 22.5 µM.
